Experimental data reported in PMC4967029 (Drug testing and analysis, 2015).
Where two headings read alike, the source gives them in different places.

Assays:
[1] = Hair analysis for betel related compounds; type: in vivo, human; conditions: for levels in hair: hair sample from a tobacco consumer
[2] = cited from earlier work; for elimination half-life (t1/2): human urine
[3] = Urine time course of betel biomarkers after betel chewing; conditions: for return to baseline levels in urine (time post-chewing) / time of peak in urine post-chewing: participant 1
[4] = for time of peak in saliva post-chewing: after one serving of betel nut/quid, n=4; for detected in saliva above the limit of detection up to (time after chewing): all participants
[5] = Stability study of betel alkaloid standards in MeOH, HCl and NaOH at 45°C; type: physicochemical; conditions: 1N NaOH; for fate of the carboxylic acids in basic conditions: after 24 h
[6] = after infusion; cited from earlier work

In the case of CN1CCCC(C(=O)O)C1 (stereo not shown) [NMNA, N-methylnipecotic acid], the “detection in hair samples” value ([1]; hair of participants who chewed betel nuts at least once daily for ½-2 h) is listed as “could not detect”, the “elimination half-life (t1/2)” value [2] is listed as 7.9 h and the “urinary NMNA excretion” value ([2]; subjects consumed water extracts of areca nuts) is listed as 1298 ng/mg creatinine. For the same molecule, the “urinary excretion of NMNA relative to that of arecaidine” value ([2]; urine) was < 25%, the “detection in urine samples” value ([3]; LC-MS) was “failed” and the “detection in saliva samples” value ([4]; saliva, LC-MS) was “failed”.
In the case of CN1CCC=C(C(=O)O)C1 [arecaidine], the “fate of the carboxylic acids in basic conditions” value [5] is given as “disappeared”, the “elimination half-life (t1/2)” value [2] is given as 4.3 h and the “return to baseline levels in urine (time post-chewing)” value (“return to baseline levels in urine” below) [3] is given as “approximately 8 h”. The “time of peak in urine post-chewing” value [3] was “approximately 2 h”, the “return to baseline levels in saliva (time post-chewing)” value (“return to baseline levels in saliva” below) ([4]; saliva) was 8 h and the “time of peak in saliva post-chewing” value ([4]; saliva) was ≤ 2 h. For the same molecule, the “detected in saliva above the limit of detection up to (time after chewing)” value (“detected in saliva above the limit” for short) ([4]; saliva) was “up to 8 h”.
In the case of COC(=O)C1=CCCN(C)C1 [arecoline], the “stability in basic conditions” value [5] is listed as “not stable”, the “time to hydrolysis to the carboxylic acid” value [5] is listed as “up to 1 hour” and the “elimination half-life (t1/2)” value [2] is listed as 0.97 h. For the same molecule, the “disappearance of arecoline from plasma” value [6] was ≥ 15 min, the “return to baseline levels in urine” value [3] was “approximately 8 h” and the “time of peak in urine post-chewing” value [3] was “approximately 2 h”. The “return to baseline levels in saliva” value ([4]; saliva) was 8 h, the “time of peak in saliva post-chewing” value ([4]; saliva) was ≤ 2 h and the “detected in saliva above the limit” value ([4]; saliva) was “up to 8 h”.
In the case of C=CCc1ccc(OC)c(OC2OC(C(=O)O)C(O)C(O)C2O)c1 (stereo not shown) [chavibetol glucuronide], the “return to baseline levels in urine” value [3] is reported as “approximately 8 h” and the “time of peak in urine post-chewing” value [3] is reported as “approximately 2 h”.
In the case of C=CCc1ccc(OC)c(O)c1 [chavibetol], the detection in saliva ([4]; participant 2, who chewed exclusively betel nut) is reported as “absence”, the detection in saliva ([4]; participants 1, 3 and 4, who consumed Piper betle leaves in their BQ) is reported as “detected” and the “return to baseline levels in saliva” value ([4]; saliva) is reported as 2 h. For the same molecule, the “time of peak in saliva post-chewing” value ([4]; saliva) was 0.5 to 1 h.
In the case of CN1C(=O)CC[C@H]1c1cccnc1 [cotinine], the levels in hair [1] is reported as “high levels”.
In the case of O=C(O)C1=CCCNC1 [guvacine], the “fate of the carboxylic acids in basic conditions” value [5] is reported as “disappeared”, the “return to baseline levels in urine” value [3] is reported as “approximately 8 h” and the “time of peak in urine post-chewing” value [3] is reported as “approximately 2 h”. For the same molecule, the “return to baseline levels in saliva” value ([4]; saliva) was 8 h, the “time of peak in saliva post-chewing” value ([4]; saliva) was ≤ 2 h and the “detected in saliva above the limit” value ([4]; saliva) was “up to 8 h”.
With COC(=O)C1=CCCNC1 [guvacoline] the “stability in basic conditions” value [5] was “not stable”, the “time to hydrolysis to the carboxylic acid” value [5] was “up to 1 hour” and the “return to baseline levels in urine” value [3] was “approximately 8 h”. For the same molecule, the “time of peak in urine post-chewing” value [3] was “approximately 2 h”, the “return to baseline levels in saliva” value ([4]; saliva) was 8 h and the “time of peak in saliva post-chewing” value ([4]; saliva) was ≤ 2 h. For the same molecule, the “detected in saliva above the limit” value ([4]; saliva) was “up to 8 h”.
For CN1CCC[C@H]1c1cccnc1 [nicotine], the levels in hair [1] was “high levels”.
